Experiments:
human CaSR = biological target: T1, human CaSR (Homo sapiens, UniProt P41180); assay: Functional whole cell assay (modulation of human CaSR), IP1 accumulation in CHO-K1 cells; format: cell-based; conditions: CHO-K1 cells stably expressing human CaSR, final Ca2+ 1.9 mM, IP1 readout; concentration giving 50% of maximum agonistic response
T1 construct: The ORF coding for the human CaSR (genebank: NM_000388)
T1 sequence (P41180 20-1078): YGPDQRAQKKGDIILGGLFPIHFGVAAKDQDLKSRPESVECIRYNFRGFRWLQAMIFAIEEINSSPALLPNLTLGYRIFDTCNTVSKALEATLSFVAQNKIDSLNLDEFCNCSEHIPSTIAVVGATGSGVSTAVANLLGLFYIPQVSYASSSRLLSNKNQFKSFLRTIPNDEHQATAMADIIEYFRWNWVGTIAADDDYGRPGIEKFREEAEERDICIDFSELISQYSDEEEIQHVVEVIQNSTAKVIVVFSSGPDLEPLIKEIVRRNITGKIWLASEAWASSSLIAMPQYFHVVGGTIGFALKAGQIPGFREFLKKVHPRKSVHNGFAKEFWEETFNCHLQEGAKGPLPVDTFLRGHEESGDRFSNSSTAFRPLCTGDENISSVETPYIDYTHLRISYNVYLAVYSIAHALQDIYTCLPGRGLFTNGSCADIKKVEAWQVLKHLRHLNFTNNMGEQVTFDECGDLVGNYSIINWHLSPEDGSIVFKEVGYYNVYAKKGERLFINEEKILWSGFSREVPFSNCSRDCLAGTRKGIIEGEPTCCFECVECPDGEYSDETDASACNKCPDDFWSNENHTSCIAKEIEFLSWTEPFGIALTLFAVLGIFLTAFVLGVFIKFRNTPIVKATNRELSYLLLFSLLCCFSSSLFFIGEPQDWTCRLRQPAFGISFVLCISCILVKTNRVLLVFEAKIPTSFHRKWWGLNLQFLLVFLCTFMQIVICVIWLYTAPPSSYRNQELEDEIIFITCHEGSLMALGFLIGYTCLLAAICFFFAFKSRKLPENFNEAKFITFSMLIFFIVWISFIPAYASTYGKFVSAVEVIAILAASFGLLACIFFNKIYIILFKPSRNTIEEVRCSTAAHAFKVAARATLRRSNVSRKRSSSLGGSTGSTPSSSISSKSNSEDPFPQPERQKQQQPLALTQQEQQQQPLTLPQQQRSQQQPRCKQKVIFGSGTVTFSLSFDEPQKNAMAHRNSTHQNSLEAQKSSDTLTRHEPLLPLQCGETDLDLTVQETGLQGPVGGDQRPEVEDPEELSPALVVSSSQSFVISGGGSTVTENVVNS
Text: The assay investigates a compound's functional ability to act as a biological positive modulator on the human CaSR. Activation of the receptor expressed on CHO-K1 cells is detected through the G alpha q pathway, the activation of phospholipase C and the accumulation of intracellular inositol phosphate (IP) as described earlier [Sandrine Ferry, Bruno Chatel, Robert H. Dodd, Christine Lair, Danielle Gully, Jean-Pierre Maffrand, and Martial Ruat. Effects of Divalent Cations and of a Calcimimetic on Adrenocorticotropic Hormone Release in Pituitary Tumor Cells. Biochemical and biophysical research Communications 238, 866-873 (1997)]. The human CaSR is stably expressed on a CHO-K1 cell clone, stimulated with a basal level of calcium and challenged with the tested compound. The level of IP1 is determined using the IP-One Terbium htrf kit (Cisbio, France). CHO-K1 cells not transfected with the CaSR fail to elicit an IP1 response upon calcium and/or compound stimulation.
The ORF coding for the human CaSR (genebank: NM_000388) was acquired from Invitrogen Corp, USA and subsequently cloned into the mammalian expression vector pCDA3.1.
CHO-K1 cells were transfected using Lipofectamine according to manufacturer's protocol (400.000 cells/well were seeded in a 6-well plate and transfected after 24 hours using 2 μg DNA and 5 μl lipofectamine). After another 24 hours the cells were detached, seeded and subjected to 1 mg/ml of G-418. Following 7 days growth single clones were picked, the CaSR expression evaluated using the 5C10 antibody against CaSR, the clones with the highest expression were selected and tested for functional response. The preferred clone was cultured according to standard procedures described in ATCC (American Type Culture Collection) protocols for CHO-K1 with the addition of 500 μg/ml G-418.
On the assay day, cells were thawed, harvested and resuspended to 4*10^6 cells/ml in stimulation buffer (containing: Hepes 10 mM, MgCl2 0.5 mM, KCl 4.2 mM, NaCl 146 mM, glucose 5.5 mM, LiCl 50 mM, BSA 0.5% at pH 7.4). Ten μl cell solution was pipetted into wells of a white 384-well plate (Perkin Elmer Optiplate) containing 2 μl compound diluted in assay buffer (containing: Hepes 10 mM, MgCl2 0.5 mM, KCl 4.2 mM, NaCl 146 mM, glucose 5.5 mM, LiCl 50 mM, CaCl2 11.4 mM at pH 7.4), resulting in a final Ca^2+ concentration of 1.9 mM. After compound stimulation for 1 hour at 37° C. and 15 min at room temperature, 10 ul of IP-One assay detection reagent (prepared as described by the IP-One assay kit manufacturer) was added and the plate was incubated for another 1 hour at room temperature. Finally the plate was read using a Perkin Elmer EnVision, according to the protocol supplied by the IP-One assay kit manufacturer. The FRET ratio was calculated by dividing the 665 nm emission signal with that of the 615 nm.
The molar concentration of a compound that produces 50% of the maximum agonistic response (the […] value) is calculated according to the equation “General sigmoidal curve with Hill slope, a to d” (Equation 1). This model describes a sigmoidal curve with an adjustable baseline. The equation can be used to fit curves where response is either increasing or decreasing with respect to the independent variable, X.
y=(a−d)/(1+(x/c)̂b)+d Equation 1.
x=concentration of tested compound y=response (%) a=min response as compound concentration approaches 0 d=max response as concentration of tested compound is increasing c=IC50 for the curve b=Hill coefficient or curve slope

[1] = Clearance in human liver microsomes; format: in vitro ADME; conditions: hepatic extraction ratio; 0.5 μM compound, 0.5 mg/mL microsomes, 1 mM NADPH, 30 min
Procedure: Test compound concentration is 0.5 μM, microsome concentration is 0.5 mg/mL and NADPH concentration is 1 mM in the incubation. The described method is performed by the liquid handling system Tecan RSP and is based on a 96-well format.
Control incubations with test compound without NADPH and test compound without microsomes are conducted to investigate non-CYP mediated metabolism and stability in phosphate buffer at 37° C., respectively.
The human liver microsomal suspension in phosphate buffer is mixed with NADPH. The mixture is pre-heated (7 min) to 37° C. Test compound is added, and the mixture is incubated for 30 minutes. Incubations are run in duplicate. Samples are withdrawn at predetermined stop times and mixed with methanol containing internal standard (IS) to terminate all enzyme activity and precipitate proteins. A control without NADPH (to detect problems such as nonspecific protein binding, heat instability or non-CYP mediated metabolism) and a control without microsomes (for assessing compound stability in the absence of any active enzymes) are tested.
The percentage of organic solvent in the incubations is less than 1%. Careful inspections of reagents are performed prior to the start of any experiment to ensure all reagents are in solution.
The 96-well plates are centrifuged. Test compound depletion, using a compound specific LC/MS/MS method, is determined.
The logarithm of the peak area ratios of test compound to internal standard (IS) versus incubation time is plotted in a graph.
The rate constant (k) (min^−1) of test compound depletion is calculated from the linear part of the curve and the half-time (t1/2) in minutes can be calculated from the rate constant (Eq. 2).
Intrinsic clearance (Clint) (mL/min/mg protein) is calculated from: […]
where c is the microsomal protein concentration in mg/mL.
Intrinsic clearance is the maximum ability of the liver to extract a drug in the absence of blood flow restrictions.
Conversion to apparent clearance (Clapp) (mL/min/kg) is done by Eq. 4:
Clapp=Clint×a×b/d (Eq. 4)
where a, b and d are the scaling factors for normalizing Clint to human body weight.
The following human scaling factors are used:
a: 45 (microsomal protein/liver weight (mg/g)) b: 1500 (liver weight (g)) d: 70 (body weight (kg))
Hepatic clearance (Clh) (mL/min/kg) based on the well-stirred model is described as followed:
Clh=(Clapp·Q)/(Clapp+Q) (Eq. 5)
where Q is the liver blood flow in mL/min/kg (20 in humans).
Dividing hepatic clearance with liver blood flow, the hepatic extraction ratio (%) can be calculated:
Apparent clearance below approximately 10 mL/min/kg human body weight (corresponding to extraction ratio of approx. 33%) is considered as low clearance (high metabolic stability). Apparent intrinsic clearance above approximately 60 mL/min/kg human body weight (corresponding to extraction ratio of approx. 75%) is considered as high clearance (low metabolic stability).

| SMILES | EC50 (human CaSR) [nM] | Clearance (% Eh) in human liver microsomes [1] |
| --- | --- | --- |
| C[C@@H](N[C@H]1CC[C@@H](c2ccc(NCCS(N)(=O)=O)nc2)C1)c1cccc2c1OCO2 [Compound 114, 2-[[5-[(1R,3S)-3-[[(1R)-1-(1,3-Benzodioxol-4-yl)ethyl]amino]cyclopentyl]-2-pyridyl]amino]ethanesulfonamide] | 200 to 1000 | A (A: Eh < 33%) |
| CCOc1cccc([C@@H](C)N[C@H]2CC[C@@H](c3ccc(N4CCNC(=O)C4)nc3)C2)c1 [Compound 117, 4-[5-[(1R,3S)-3-[[(1R)-1-(3-Ethoxyphenyl)ethyl]amino]cyclopentyl]-2-pyridyl]piperazin-2-one] | 200 to 1000 | A (A: Eh < 33%) |
| C[C@@H](N[C@H]1CC[C@@H](c2ccc(NCCS(N)(=O)=O)nc2)C1)c1cccc(Cl)c1 [Compound 121, 2-[[5-[(1R,3S)-3-[[(1R)-1-(3-Chlorophenyl)ethyl]amino]cyclopentyl]-2-pyridyl]amino]ethanesulfonamide] | 200 to 1000 | A (A: Eh < 33%) |
| COc1cc([C@@H](C)N[C@H]2CC[C@@H](c3cnc(NCCNS(C)(=O)=O)nc3)C2)ccc1F [Compound 123, N-[2-[[5-[(1R,3S)-3-[[(1R)-1-(4-Fluoro-3-methoxy-phenyl)ethyl]amino]cyclopentyl]pyrimidin-2-yl]amino]ethyl]methanesulfonamide] | 200 to 1000 | A (A: Eh < 33%) |
